Assay results: US20160050935A1, “METHOD FOR CONTROLLING PARTICLE SIZE OF SILVER PARTICLES, SILVER PARTICLES, ANTIMICROBIAL AGENT CONTAINING SLIVER PARTICLES, AND USE THEREOF” (SOFSERA CORPORATION, priority 2013, published 2016)

Tested on: Escherichia coli (Gram-negative bacteria)
Test: Antibacterial test of silver particles-2 (bacteria count in tube 1 over time)
Type: cell-based
Procedure: A test similar to that in <5. Antibacterial test of silver particles-1> was carried out with use of Escherichia coli (Gram-negative bacteria), which is one of model organisms and by which bacteria are typified. Note that the test was carried out by a method similar to that in <5. Antibacterial test of silver particles-1>, except that a kind of the bacteria used in the test was changed. Therefore, the method of the test will not be described here, and only results of the test will be described.
FIG. 10 illustrates results of the test carried out with use of “1 mM CDT-Ag,” “5 mM CDT-Ag,” and “10 mM CDT-Ag.” More specifically, FIG. 10 illustrates results of, “0 (zero) h,” “0.5 h,” “1 (one) h,” and “2 h” after the silver particles were mixed with the bacteria, (i) taking out an LB culture medium from each of tubes 1 through 8 stored in an incubator and (ii) carrying out an operation K), that is, a result of incubating the bacteria at 37° C. for 24 hours by storing a petri dish, prepared in the operation K), in the incubator.

O=C(O)CCCCCCCCCCS [Free CDT, 10-carboxy-1-decanthiol]
bacteria count in the tube 1 (count at 0 h = 1) (0 h (set to 1 by assumption)): 1 | bacteria count in the tube 1 (count at 0 h = 1) (0.5 h after mixing): 1 | bacteria count in the tube 1 (count at 0 h = 1) (1 h after mixing): 1 | bacteria count in the tube 1 (count at 0 h = 1) (2 h after mixing): 1 | antibacterial activity (in words, from FIG. 10 and Table 3): did not have antibacterial activity
